Data published in patent US11603543B2, “Fusogenic lipid nanoparticles for target cell-specific production of a therapeutic protein” (Oisin Biotechnologies, Inc., priority 2018, dated 2023).

How the values were obtained:
[1] = test system: Human prostate cancer (LNCaP, DU145, PC-3) or normal epithelial (RWPE) cells; assay: Western blot and luminescence assays of iCasp9 expression in prostate cancer and normal epithelial cells; assay type: cell-based; details: DU145, PC-3, RWPE cells treated with Fusogenix lipid nanoparticles carrying pVax-p53-iCasp9-luc plasmid
[2] = humans; cited from earlier work
[3] = test system: Human prostate cancer PC-3 cells; assay: Luminescence assay of iCasp9 expression in PC-3 cells; assay type: cell-based; details: PC-3 cells treated with Fusogenix lipid nanoparticles carrying pVax-p53-iCasp9-luc plasmid
Procedure: FIG. 42 is a bar graph of data from a luminescence assay of iCasp 9 and Casp 9 protein levels obtained with the p53-expressing cells presented in FIG. 36 (pVax-p53) and control cells (pcDNA3-GFP). Human prostate cancer PC-3 cells were treated with Fusogenix lipid nanoparticles carrying the pVax-p53-iCasp9-luc (luciferin) plasmid (in the presence and absence of the homodimerizer AP20187) and assessed for iCasp9 expression.
Human prostate cancer PC-3 cells were treated with Fusogenix lipid nanoparticles carrying the pVax-p53-iCasp9-luc (luciferin) plasmid (in the presence and absence of the homodimerizer AP20187) and assessed for iCasp9 expression.

[4] = test system: Human prostate cancer PC-3 cells; assay: Western blot of iCasp9 and Casp9 protein levels in PC-3 cells; assay type: cell-based; details: PC-3 cells treated with Fusogenix lipid nanoparticles carrying pVax-p53-iCasp9-luc plasmid
Procedure: FIG. 36 is a Western blot of iCasp 9 and Casp 9 protein levels obtained with p53-expressing cells (pVax-p53) and control cells (pcDNA3-GFP). Human prostate cancer PC-3 cells were treated with Fusogenix lipid nanoparticles carrying the pVax-p53-iCasp9-luc (luciferin) plasmid (in the presence and absence of the homodimerizer AP201870) and assessed for iCasp9 expression.
Human prostate cancer PC-3 cells were treated with Fusogenix lipid nanoparticles carrying the pVax-p53-iCasp9-luc (luciferin) plasmid (in the presence and absence of the homodimerizer AP201870) and assessed for iCasp9 expression and subjected to Western blot analysis of iCasp 9 and Casp 9 protein levels obtained with p53-expressing cells (pVax-p53) and control cells (pcDNA3-GFP). FIG. 36.

[5] = Anti-p14 and anti-LNP antibody response in immune competent mice; assay type: in vivo; details: with adjuvant: 3 injections of 50 μg p14 with Freund's adjuvant at 10 day intervals; sera after 30 days
Procedure: Mice were injected three (3) times at 10 day intervals with purified p14 mixed with Freund's adjuvant. A first dose contained CFA (complete Freund's adjuvant) while second and third doses contained IFA (incomplete Freund's adjuvant). Each injection was with 50 μg of p14. Mice were sacrificed after 30 days and sera was analyzed for anti-p14 antibodies. p14 lipid nanoparticles were also tested in two (2) mice via intravenous injection of 400 μg of p53-iCasp9 Fusogenix lipid nanoparticles containing 240 μg of p14. Mice were sacrificed after 30 days of injection and serum was analyzed for anti-p14 antibodies. A positive control included purified antibodies spiked in serum at a high dose of 250 ng/ml and a low dose of 50 ng/ml.

For CC[C@H](C(=O)N1CCCC[C@H]1C(=O)O[C@H](CCc1ccc(OC)c(OC)c1)c1cccc(OCC(=O)NCCNC(=O)COc2cccc([C@@H](CCc3ccc(OC)c(OC)c3)OC(=O)[C@@H]3CCCCN3C(=O)[C@@H](CC)c3cc(OC)c(OC)c(OC)c3)c2)c1)c1cc(OC)c(OC)c(OC)c1 [AP1903], the “expression of iCasp9 and luciferase after addition of CID” value (“expression of iCasp9 and luciferase” for short) [1] is given as “abolishes the expression of iCasp9 and luciferase”, the intravenous safety [2] is given as “confirmed” and the “expression of iCasp9 and luciferase” value [3] is given as “abolishes the expression of iCasp9 and luciferase”. For the same molecule, the “expression of iCasp9 and luciferase” value [4] was “abolishes the expression of iCasp9 and luciferase”.

With CC[C@H](C(=O)N1CCCC[C@H]1C(=O)O[C@H](CCc1ccc(OC)c(OC)c1)c1cccc(OCC(=O)NCC(CNC(=O)COc2cccc([C@@H](CCc3ccc(OC)c(OC)c3)OC(=O)[C@@H]3CCCCN3C(=O)[C@@H](CC)c3cc(OC)c(OC)c(OC)c3)c2)CN(C)C)c1)c1cc(OC)c(OC)c(OC)c1 [AP20187] the “expression of iCasp9 and luciferase” value [1] was “abolishes the expression of iCasp9 and luciferase”, the “expression of iCasp9 and luciferase” value [3] was “abolishes the expression of iCasp9 and luciferase” and the “expression of iCasp9 and luciferase” value [4] was “abolishes the expression of iCasp9 and luciferase”.

B1: p14: fusogenic p14 FAST fusion protein from reptilian reovirus, SEQ ID NO: 16 (protein, listed as Homo sapiens)
chain: MGSGPSNFVNHAPGEAIVTGLEKGADKVAGTISHTIWEVIAGLVALLTFLAFGFWLFKYLQKRRERRRQLTEFQKRYLRNSYRLSEIQRPISQHEYEDPYEPPSRRKPPPPPYSTYVNIDNVSAI
With B1 the anti-p14 antibody response [5] was “virtually no antibody response”.
